biological target: HIV-1 integrase (Human immunodeficiency virus type 1 group M subtype B, UniProt P04585); assay: HIV-1 integrase inhibition assay (radiolabeled duplex substrate corresponding to the U5 end of the HIV LTR); format: biochemical; details: not given
Protocol: For the purpose of Table 1 to 4, the HIV-1 integrase inhibition assay was carried out following a known procedure (Burke, Jr. T. R. et al., J. Med. Chem. 38, 4171-4178 (1995)). A suitable radiolabeled duplex substrate corresponding to the U5 end of the HIV LTR was used.
For the purposes of Table 1 to 4 the HIV-1 integrase inhibition assay was based on a known procedure (Hazuda, D. J. et al., Nucleic Acids Res. 22 1121-1122 (1994)).

First: O=C(C[C@H](NC(=O)c1ccc(O)c(O)c1)C(=O)NCCc1ccc(O)c(O)c1)OC1CCCCC1 [Example 1, N-[Nα-(3,4-Dihydroxybenzoyl)-Oγ-cyclohexyl-L-aspartyl]dopamine]
Second: O=C(N[C@@H](Cc1ccc(O)c(O)c1)C(=O)NCCc1ccc(O)c(O)c1)c1ccc(O)c([N+](=O)[O-])c1 [Example 15, N-[Nα-(4-Hydroxy-3-nitrobenzoyl)-L-3,4-dihydroxyphenylalanyl]dopamine]
The IC50 of the first is 79-fold higher: 34000 nM for the first, 433 nM for the second.

First: Nc1cc(C(=O)N[C@H](Cc2cn(C(c3ccccc3)(c3ccccc3)c3ccccc3)cn2)C(=O)NCCc2ccc(O)c(O)c2)ccc1O [Example 2, N-[Nα-(3-Amino-4-hydroxybenzoyl)-Nτ-trityl-D-histidinyl]dopamine]
Second: O=C(N[C@@H](Cc1cn(C(c2ccccc2)(c2ccccc2)c2ccccc2)cn1)C(=O)NCCc1ccc(O)c(O)c1)c1ccc(O)c(O)c1 [Example 14, N-[Nα-(3,4-Dihydroxybenzoyl)-Nτ-trityl-L-histidinyl]dopamine]
The IC50 of the first is higher: > 5000 nM for the first, 65 nM for the second. The second is the more potent here.

`O=C(NCCCC[C@H](NC(=O)c1ccc(O)c(O)c1)C(=O)O)c1ccc(O)c(O)c1` [Example 3, Nα,Nε-di-(3,4-Dihydroxybenzoyl)-L-lysine] and `Nc1ccc(C(=O)N[C@@H](Cc2ccc(O)c(O)c2)C(=O)O)cc1O` [Example 20, Nα-(4-Amino-3-hydroxybenzoyl)-L-3,4-dihydroxyphenylalanine] cannot be ordered by IC50: 14000 nM for the first, > 5000 nM for the second.

`O=C(N[C@@H](Cc1ccc(O)cc1)C(=O)NCCc1ccc(O)c(O)c1)c1cnc(O)nc1O` [Example 4, N-[Nα-(2,4-Dihydroxypyrimidinyl-5-carbonyl)-L-tyrosyl]dopamine] and `C[C@@H](OCc1ccccc1)[C@H](NC(=O)c1ccc(O)c(O)c1)C(=O)NCCc1ccc(O)c(O)c1` [Example 9, N-[Nα-(3,4-Dihydroxybenzoyl)-O-benzyl-L-threonyl]dopamine] cannot be ordered by IC50: > 10000 nM for the first, > 5000 nM for the second.

First: O=C(/C=C/c1ccc(O)c(O)c1)NCCCC[C@H](NC(=O)/C=C/c1ccc(O)c(O)c1)C(=O)NCCc1ccc(O)c(O)c1 [Example 5, N-(Nα,Nε-Dicaffeoyl-L-lysyl)dopamine]
Second: O=C(/C=C/c1ccc(O)c(O)c1)NCCC[C@H](NC(=O)/C=C/c1ccc(O)c(O)c1)C(=O)NCCc1ccc(O)c(O)c1 [Example 11, N-(Nα,Nδ-Dicaffeoyl-L-ornithyl)dopamine]
The IC50 of the first is 1.7-fold lower: 510 nM for the first, 870 nM for the second. The first is the more potent here.

Compared with `O=C(/C=C/c1ccc(O)c(O)c1)NCCCC[C@H](NC(=O)/C=C/c1ccc(O)c(O)c1)C(=O)OCc1ccccc1` [Example 6, Nα,Nε-Dicaffeoyl-L-lysine Benzyl Ester], `O=C(C=Cc1ccc(O)c(O)c1)NC(Cc1cn(Cc2ccccc2)cn1)C(=O)NCCc1ccc(O)c(O)c1` [Example 40, N-(Nα-Caffeoyl-Nτ-benzyl-L-histidinyl)dopamine] is 3.2-fold lower in IC50: 2700 nM for the first, 836 nM for the second. The second is the more potent here.

`O=C(/C=C/c1ccc(O)c(O)c1)N[C@@H](CSC(c1ccccc1)(c1ccccc1)c1ccccc1)C(=O)NCCc1ccc(O)c(O)c1` [Example 12, N-(Nα-Caffeoyl-S-trityl-L-cysteinyl)dopamine] and `O=C(C=Cc1ccc(O)c(O)c1)NC(Cc1cn(C(c2ccccc2)(c2ccccc2)c2ccccc2)cn1)C(=O)NCCc1ccc(O)c(O)c1` [Example 13, N-(Nα-Caffeoyl-Nτ-trityl-L-histidinyl)dopamine] are within 1.5-fold of each other in IC50: 472 nM for the first, 369 nM for the second.

First: O=C(N[C@H](Cc1cn(C(c2ccccc2)(c2ccccc2)c2ccccc2)cn1)C(=O)NCCc1ccc(O)c(O)c1)c1ccc(O)c(O)c1 [Example 16, N-[Nα-(3,4-Dihydroxybenzoyl)-Nτ-trityl-D-histidinyl]dopamine]
Second: O=C(N[C@@H](Cc1cn(C(c2ccccc2)(c2ccccc2)c2ccccc2)cn1)C(=O)NCc1ccc(O)c(O)c1)c1ccc(O)c(O)c1 [Example 25, N-[Nα-(3,4-Dihydroxybenzoyl)-Nτ-trityl-L-histidinyl]-3,4-dihydroxybenzylamine]
The IC50 of the first is lower: 155 nM for the first, > 1000 nM for the second.

First: O=C(N[C@@H](Cc1cn(C(c2ccccc2)(c2ccccc2)c2ccccc2)cn1)C(=O)NCCc1ccc(O)c(O)c1)c1ccc(O)c([N+](=O)[O-])c1 [Example 17, N-[Nα-(4-Hydroxy-3-nitrobenzoyl)-Nτ-trityl-L-histidinyl]dopamine]
Second: O=C(N[C@H](Cc1cn(C(c2ccccc2)(c2ccccc2)c2ccccc2)cn1)C(=O)NCCc1ccc(O)c(O)c1)c1ccc(O)c([N+](=O)[O-])c1 [Example 18, N-[Nα-(4-Hydroxy-3-nitrobenzoyl)-Nτ-trityl-D-histidinyl]dopamine]
The IC50 of the first is 2.8-fold higher: 1600 nM for the first, 562 nM for the second. The second is the more potent here.

Compared with `O=C(C=Cc1ccc(O)c(O)c1)NC(Cc1cn(-c2ccc([N+](=O)[O-])cc2[N+](=O)[O-])cn1)C(=O)NCCc1ccc(O)c(O)c1` [Example 19, N-[Nα-Caffeoyl-Nτ-(2,4-dinitrophenyl)-L-histidinyl]dopamine], `O=C(N[C@@H](Cc1cn(-c2ccc([N+](=O)[O-])cc2[N+](=O)[O-])cn1)C(=O)NCCc1ccc(O)c(O)c1)c1ccc(O)c(O)c1` [Example 21, N-[Nα-(3,4-Dihydroxybenzoyl)-Nτ-(2,4-dinitrophenyl)-L-histidinyl]dopamine] is 3.7-fold lower in IC50: 560 nM for the first, 151 nM for the second.

First: O=C(N[C@@H](Cc1cn(-c2ccc([N+](=O)[O-])cc2[N+](=O)[O-])cn1)C(=O)NCc1ccc(O)c(O)c1)c1ccc(O)c(O)c1 [Example 23, N-[Nα-(3,4-Dihydroxybenzoyl)-Nτ-(2,4-dinitrophenyl)-L-histidinyl]-3,4-dihydroxybenzylamine]
Second: CC(C)(C)OC(=O)N[C@@H](Cc1cn(-c2ccc([N+](=O)[O-])cc2[N+](=O)[O-])cn1)C(=O)NCc1ccc(O)c(O)c1 [Example 24, N-[Nα-tert-Butoxycarbonyl-Nτ-(2,4-dinitrophenyl)-L-histidinyl]-3,4-dihydroxybenzylamine]
The IC50 of the first is lower: 262 nM for the first, > 5000 nM for the second. The first is the more potent here.

Compared with `Cc1ccc(C(NC(=O)CC[C@H](NC(=O)c2ccc(O)c([N+](=O)[O-])c2)C(=O)NCc2ccc(O)c(O)c2)(c2ccccc2)c2ccccc2)cc1` [Example 26, N-[Nα-(4-Hydroxy-3-nitrobenzoyl)-Nδ-methyltrityl-L-glutaminyl]-3,4-dihydroxybenzylamine], `Cc1ccc(C(NC(=O)CC[C@H](NC(=O)c2ccc(O)c(O)c2)C(=O)NCc2ccc(O)c(O)c2)(c2ccccc2)c2ccccc2)cc1` [Example 32, N-[Nα-(3,4-Dihydroxybenzoyl)-Nδ-methyltrityl-L-glutaminyl]-3,4-dihydroxybenzylamine] is 2.1-fold lower in IC50: 533 nM for the first, 256 nM for the second. The second is the more potent here.

First: O=C(CCc1ccc(O)c(O)c1)N[C@@H](Cc1cn(C(c2ccccc2)(c2ccccc2)c2ccccc2)cn1)C(=O)NCCc1ccc(O)c(O)c1 [Example 27, N-(Nα-Dihydrocaffeoyl-Nτ-trityl-L-histidinyl)dopamine]
Second: O=C(N[C@@H](Cc1cn(C(c2ccccc2)(c2ccccc2)c2ccccc2)cn1)C(=O)NCCc1ccc(O)c(O)c1)c1cc(O)c(O)c(O)c1 [Example 39, N-[Nα-(3,4,5-Trihydroxybenzoyl)-Nτ-trityl-L-histidinyl]dopamine]
The IC50 of the first is higher: > 5000 nM for the first, 222 nM for the second.

Going from `O=C(N[C@@H](Cc1cn(C(c2ccccc2)(c2ccccc2)c2ccccc2)cn1)C(=O)O)c1ccc(O)c(O)c1` [Example 29, Nα-(3,4-Dihydroxybenzoyl)-Nτ-trityl-L-histidine] to `O=C(C=Cc1ccc(O)c(O)c1)NC(Cc1cn(C(c2ccccc2)(c2ccccc2)c2ccccc2)cn1)C(=O)NCc1ccc(O)c(O)c1` [Example 31, N-(Nα-Caffeoyl-Nτ-trityl-L-histidinyl)-3,4-dihydroxybenzylamine], the IC50 falls from 1600 nM to 364 nM (4.4-fold). The second is the more potent here.

Compared with `Cc1ccc(C(NC(=O)CC[C@H](NC(=O)/C=C/c2ccc(O)c(O)c2)C(=O)NCc2ccc(O)c(O)c2)(c2ccccc2)c2ccccc2)cc1` [Example 33, N-(Nα-Caffeoyl-Nδ-methyltrityl-L-glutaminyl)-3,4-dihydroxybenzylamine], `O=C(C=Cc1ccc([N+](=O)[O-])cc1)NC(Cc1cn(C(c2ccccc2)(c2ccccc2)c2ccccc2)cn1)C(=O)NCCc1ccc(O)c(O)c1` [Example 41, N-(Nα-(4-Nitrocinnamoyl)-Nτ-trityl-L-histidinyl)dopamine] is 7.4-fold higher in IC50: 155 nM for the first, 1140 nM for the second. The first is the more potent here.

`O=C(N[C@@H](COCc1ccccc1)C(=O)NCCc1ccc(O)c(O)c1)c1ccc(O)c([N+](=O)[O-])c1` [Example 34, N-[Nα-(4-Hydroxy-3-nitrobenzoyl)-O-benzyl-L-seryl]dopamine] and `O=C(NCCCC[C@H](NC(=O)c1c(O)cc(O)cc1O)C(=O)NCCc1ccc(O)c(O)c1)OCc1ccccc1` [Example 37, N-[Nα-(2,4,6-Trihydroxybenzoyl)-Nε-benzyloxycarbonyl-L-lysyl]dopamine] are within 1.5-fold of each other in IC50: 1800 nM for the first, 1600 nM for the second.

`O=C(/C=C/c1cccc([N+](=O)[O-])c1)N[C@@H](Cc1cn(C(c2ccccc2)(c2ccccc2)c2ccccc2)cn1)C(=O)NCCc1ccc(O)c(O)c1` [Example 35, N-(Nα-(3-Nitrocinnamoyl)-Nτ-trityl-L-histidinyl)dopamine] and `O=C(N[C@@H](CSC(c1ccccc1)(c1ccccc1)c1ccccc1)C(=O)NCCc1ccc(O)c(O)c1)c1c(O)cccc1F` [Example 38, N-[Nα-(2-Fluoro-6-Hydroxybenzoyl)-S-trityl-L-cysteinyl]dopamine] are within 1.5-fold of each other in IC50: 1200 nM for the first, 1400 nM for the second.

With `CC(C)(C)OC[C@H](NC(=O)/C=C/c1ccc(O)c(O)c1)C(=O)NCCc1ccc(O)c(O)c1` [Example 42, N-(Nα-Caffeoyl-O-tert-butyl-L-seryl)dopamine] the IC50 was 442 nM.

same assay, conditions: Table 1, compounds of formula II′; read-out: IC50

In order of rising IC50:
1. Cc1ccc(C(c2ccccc2)(c2ccccc2)n2cnc(C[C@H](NC(=O)c3ccc(O)c([N+](=O)[O-])c3)C(=O)NCCc3ccc(O)c(O)c3)c2)cc1 [Example 36, N-[Nα-(4-Hydroxy-3-nitrobenzoyl)-Nτ-methyltrityl-L-histidinyl]dopamine]  575 nM
2. Cc1ccc(C(c2ccccc2)(c2ccccc2)n2cnc(C[C@H](NC(=O)CCc3ccc(O)c(O)c3)C(=O)NCCc3ccc(O)c(O)c3)c2)cc1 [Example 28, N-(Nα-Dihydrocaffeoyl-Nτ-methyltrityl-L-histidinyl)dopamine]  713 nM

Source: patent US6528655B1, “Aromatic derivatives with HIV integrase inhibitory properties” (Pharmacor, Inc., priority 2000, dated 2003)
